According to patent US20060241177A1, “Novel compounds, pharmaceutical compositions containing same, and methods of use for same” (priority 2002, published 2006):
≈ marks a conversion by molar mass, not a printed value.

Assays:
purified human FAS = target: T1, purified human FAS (Homo sapiens, UniProt P49327); assay: Measurement of FAS enzymatic activity (NADPH oxidation) and IC50; format: biochemical; conditions: purified human FAS from ZR-75-1 cells, malonyl-CoA dependent NADPH oxidation
T1 construct: Human FAS was purified from cultured ZR-75-1 human breast cancer cells; endogenous in cells; host or cells: ZR-75-1 human breast cancer cells (ATCC); endogenous enzyme purified by PEG precipitation and Mono Q chromatography
T1 sequence (P49327 whole entry): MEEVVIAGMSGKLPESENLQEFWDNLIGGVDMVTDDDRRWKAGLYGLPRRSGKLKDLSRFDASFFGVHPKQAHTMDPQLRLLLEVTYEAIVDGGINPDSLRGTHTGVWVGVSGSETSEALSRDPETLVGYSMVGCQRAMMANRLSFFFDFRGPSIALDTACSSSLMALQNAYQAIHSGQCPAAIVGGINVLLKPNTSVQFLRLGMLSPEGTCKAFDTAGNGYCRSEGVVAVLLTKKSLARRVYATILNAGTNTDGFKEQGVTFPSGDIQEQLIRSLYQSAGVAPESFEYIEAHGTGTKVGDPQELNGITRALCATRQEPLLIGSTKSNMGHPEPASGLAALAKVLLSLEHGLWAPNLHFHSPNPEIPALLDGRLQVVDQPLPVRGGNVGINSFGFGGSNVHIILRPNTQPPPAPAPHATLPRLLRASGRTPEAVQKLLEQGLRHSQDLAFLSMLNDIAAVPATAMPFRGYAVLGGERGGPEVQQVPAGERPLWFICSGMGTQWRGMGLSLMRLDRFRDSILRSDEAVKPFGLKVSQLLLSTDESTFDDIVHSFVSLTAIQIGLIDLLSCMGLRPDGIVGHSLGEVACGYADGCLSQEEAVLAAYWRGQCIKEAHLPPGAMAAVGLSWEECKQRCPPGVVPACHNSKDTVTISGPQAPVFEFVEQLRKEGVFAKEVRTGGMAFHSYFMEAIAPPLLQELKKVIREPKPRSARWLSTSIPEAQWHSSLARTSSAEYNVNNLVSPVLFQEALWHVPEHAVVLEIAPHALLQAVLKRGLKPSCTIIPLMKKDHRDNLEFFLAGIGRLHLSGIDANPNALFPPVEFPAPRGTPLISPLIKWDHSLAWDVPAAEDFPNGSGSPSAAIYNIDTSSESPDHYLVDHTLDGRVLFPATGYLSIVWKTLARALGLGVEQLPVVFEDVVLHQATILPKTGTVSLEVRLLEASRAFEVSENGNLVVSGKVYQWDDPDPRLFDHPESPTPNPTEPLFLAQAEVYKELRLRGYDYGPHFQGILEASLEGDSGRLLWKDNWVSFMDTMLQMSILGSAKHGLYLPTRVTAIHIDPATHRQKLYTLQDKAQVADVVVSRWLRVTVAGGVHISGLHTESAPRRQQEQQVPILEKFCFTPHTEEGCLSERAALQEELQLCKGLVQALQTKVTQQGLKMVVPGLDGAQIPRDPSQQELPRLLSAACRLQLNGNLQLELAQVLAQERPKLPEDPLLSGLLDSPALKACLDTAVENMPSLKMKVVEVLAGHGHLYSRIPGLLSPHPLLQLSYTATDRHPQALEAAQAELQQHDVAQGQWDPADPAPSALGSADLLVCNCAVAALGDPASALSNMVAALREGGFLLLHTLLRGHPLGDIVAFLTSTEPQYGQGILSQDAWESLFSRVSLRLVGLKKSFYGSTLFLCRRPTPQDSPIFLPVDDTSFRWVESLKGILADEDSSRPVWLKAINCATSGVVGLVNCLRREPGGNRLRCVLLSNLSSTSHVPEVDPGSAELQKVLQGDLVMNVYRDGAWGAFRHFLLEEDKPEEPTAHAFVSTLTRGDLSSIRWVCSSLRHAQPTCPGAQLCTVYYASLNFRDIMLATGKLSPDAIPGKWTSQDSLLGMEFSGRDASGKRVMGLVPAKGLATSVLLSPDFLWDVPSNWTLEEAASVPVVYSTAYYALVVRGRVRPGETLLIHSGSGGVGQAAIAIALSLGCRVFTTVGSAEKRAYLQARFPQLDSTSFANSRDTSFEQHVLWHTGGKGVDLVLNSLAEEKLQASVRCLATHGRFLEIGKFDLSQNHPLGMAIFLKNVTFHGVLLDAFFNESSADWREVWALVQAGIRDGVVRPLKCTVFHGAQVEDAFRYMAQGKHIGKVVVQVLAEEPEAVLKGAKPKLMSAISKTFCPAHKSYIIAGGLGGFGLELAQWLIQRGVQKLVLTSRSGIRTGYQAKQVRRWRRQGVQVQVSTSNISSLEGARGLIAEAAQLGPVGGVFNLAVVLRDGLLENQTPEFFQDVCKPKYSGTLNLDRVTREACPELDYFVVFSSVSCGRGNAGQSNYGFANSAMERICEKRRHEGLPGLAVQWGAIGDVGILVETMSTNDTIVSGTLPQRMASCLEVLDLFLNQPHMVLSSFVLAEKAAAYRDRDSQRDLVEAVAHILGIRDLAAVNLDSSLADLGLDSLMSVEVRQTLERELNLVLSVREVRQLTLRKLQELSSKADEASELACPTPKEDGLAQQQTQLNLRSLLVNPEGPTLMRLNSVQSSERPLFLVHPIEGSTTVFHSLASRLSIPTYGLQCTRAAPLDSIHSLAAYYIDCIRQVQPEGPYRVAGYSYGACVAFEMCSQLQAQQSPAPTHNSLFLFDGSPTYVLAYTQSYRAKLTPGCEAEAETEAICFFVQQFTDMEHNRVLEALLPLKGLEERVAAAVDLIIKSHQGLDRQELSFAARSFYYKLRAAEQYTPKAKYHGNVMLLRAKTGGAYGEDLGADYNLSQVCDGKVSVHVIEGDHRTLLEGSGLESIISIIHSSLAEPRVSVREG
Experimental: Human FAS was purified from cultured ZR-75-1 human breast cancer cells obtained from the American Type Culture Collection. The procedure, adapted from Linn et al., 1981, and Kuhajda et al, 1994, utilizes hypotonic lysis, successive polyethyleneglycol (PEG) precipitations, and anion exchange chromatography. ZR-75-1 cells are cultured at 37° C. with 5% CO2 in RPMI culture medium with 10% fetal bovine serum, penicillin and streptomycin.
Ten T150 flasks of confluent cells are lysed with 1.5 ml lysis buffer (20 mM Tris-HCl pH 7.5, 1 mM EDTA, 0.1 mM phenylmethanesulfonyl fluoride (PMSF), 0.1% Igepal CA-630) and dounce homogenized on ice for 20 strokes. The lysate is centrifuged in JA-20 rotor (Beckman) at 20,000 rpm for 30 minutes at 4° C. and the supernatant is brought to 42 ml with lysis buffer. A solution of 50% PEG 8000 in lysis buffer is added slowly to the supernatant to a final concentration of 7.5%. After rocking for 60 minutes at 4° C., the solution is centrifiged in JA-20 rotor (Beckman) at 15,000 rpm for 30 minutes at 4° C. Solid PEG 8000 is then added to the supernatant to a final concentration of 15%. After the rocking and centrifugation is repeated as above, the pellet is resuspended overnight at 4° C. in 10 ml of Buffer A (20 mM K2HPO4, pH 7.4). After 0.45 μM filtration, the protein solution is applied to a Mono Q 5/5 anion exchange column (Pharmacia). The column is washed for 15 minutes with buffer A at 1 ml/minute, and bound material is eluted with a linear 60-ml gradient over 60 minutes to 1 M KCl. FAS (MW˜270 kD) typically elutes at 0.25 M KCl in three 0.5 ml fractions identified using 4-15% SDS-PAGE with Coomassie G250 stain (Bio-Rad). FAS protein concentration is determined using the Coomassie Plus Protein Assay Reagent (Pierce) according to manufacturer's specifications using BSA as a standard This procedure results in substantially pure preparations of FAS (>95%) as judged by Coomassie-stained gels.
Measurement of FAS Enzymatic Activity and Determination of the IC50 of the Compounds
FAS activity is measured by monitoring the malonyl-CoA dependent oxidation of NADPH spectrophotometrically at OD340 in 96-well plates (Dils et al and Arslanian et at, 1975). Each well contains 2 μg purified FAS, 100 mM K2HPO4, pH 6.5, 1 mM dithiothreitol (Sigma), and 187.5 μM β-NADPH (Sigma). Stock solutions of inhibitors are prepared in DMSO at 2, 1, and 0.5 mg/ml resulting in final concentrations of 20, 10, and 5 μg/ml when 1 μl of stock is added per well. For each experiment, cerulenin (Sigma) is run as a positive control along with DMSO controls, inhibitors, and blanks (no FAS enzyme) all in duplicate.
The assay is performed on a Molecular Devices SpectraMax Plus Spectrophotometer. The plate containing FAS, buffers, inhibitors, and controls are placed in the spectrophotometer heated to 37° C. Using the kinetic protocol, the wells are blanked on duplicate wells containing 100 μl of 100 mM K2HPO4, pH 6.5 and the plate is read at OD340 at 10 sec intervals for 5 minutes to measure any malonyl-CoA independent oxidation of NADPH. The plate is removed from the spectrophotometer and malonyl-CoA (67.4 μM, final concentration per well) and acetyl-CoA (61.8 μM, final concentration per well) are added to each well except to the blanks. The plate is read again as above with the kinetic protocol to measure the malonyl-CoA dependent NADPH oxidation. The difference between the Δ OD340 for the malonyl-CoA dependent and non-malonyl-CoA dependent NADPH oxidation is the specific FAS activity. Because of the purity of the FAS preparation, non-malonyl-CoA dependent NADPH oxidation is negligible.
The IC50 for the compounds against FAS is determined by plotting the Δ OD340 for each inhibitor concentration tested, performing linear regression and computing the best-fit line, r^2 values, and 95% confidence intervals. The concentration of compound yielding 50% inhibition of FAS is the IC50. […]

[1] = system: MCF-7 human breast cancer cells; assay: XTT cytotoxicity assay; format: cell-based; conditions: MCF7, MCF-7 cells, 72 hours
Experimental: The XTT assay is a non-radioactive alternative for the [^51Cr] release cytotoxicity assay. XTT is a tetrazolium salt that is reduced to a formazan dye only by metabolically active, viable cells. The reduction of XTT is measured spectrophotometrically as OD490-OD650.
To measure the cytotoxicity of specific compounds against cancer cells, 9×10^3 MCF-7 human breast cancer cells, obtained from the American Type Culture Collection are plated per well in 96 well plates in DMEM medium with 10% fetal bovine serum, msulin, penicillin, and streptomycin. Following overnight culture at 37° C. and 5% CO2, the compounds to be tested, dissolved in DMSO, are added to the wells in 1 μl volume at the following concentrations: 80, 40, 20, 10, 5, 2.5, 1.25, and 0.625 μg/ml in triplicate. Additional concentrations are tested if required. 1 μl of DMSO is added to triplicate wells are the vehicle control. C75 is run at 40, 20, […], and 5 μg/ml in triplicate as positive controls.
After 72 hours of incubation, cells are incubated for 4 hours with the XTT reagent as per manufacturer's instructions (Cell Proliferation Kit II (XTT) Roche). Plates are read at OD490 and OD650 on a Molecular Devices SpectraMax Plus Spectrophotometer. Three wells containing the All reagent without cells serve as the plate blank. XTT data are reported as OD490-OD650. Averages and standard error of the mean are computed using SOFTmax Pro software ([…]).
The IC50 for the compounds is defined as the concentration of drug leading to a 50% reduction in OD490-OD650 compared to controls. The OD490-OD650 are computed by the SOFTmax PRO software Molecular Devices) for each compound concentration. IC50 is calculated by linear regression, plotting the FAS activity as percent of control versus drug concentrations. Linear regression, best-fit line, r^2, and 95% confidence intervals are determined using Prism Version 3.0 (Graph Pad Software).

Row | SMILES | FAS (IC50) (purified human FAS) | IC50 (purified human FAS) [µM] | IC50 [1] [µg/mL]
1 | C=CCNC(=O)C1=C(C)C(=O)O[C@H]1CCCCCCCC |  | 317 | 27.8 ± 3.8 (≈ 94.7 µM)
2 | C=C1C(=O)O[C@@H](CCCCCCCC)[C@@H]1C(=O)NCC(=O)OC (racemic) | Neg |  | 2 ± 0.5 (≈ 6.15 µM)
3 | C=C1C(=O)O[C@@H](CCCCCCCC)[C@@H]1C(=O)NCCO (racemic) | Neg |  | 4.1 ± 2.2 (≈ 13.8 µM)
4 | C=CCNC(=O)[C@H]1[C@H](CCCCCCCC)OC(=O)[C@@H]1C (racemic) |  | 450 | 20.8 ± 7.1 (≈ 70.4 µM)
5 | C=C1C(=O)O[C@@H](CCCCCCCC)[C@@H]1C(=O)NCC(=O)O (racemic) | Neg |  | > 80
6 | C=CCNC(=O)[C@@H]1C(=C)C(=O)O[C@H]1CCCCCC (racemic) |  | 305 | 1.6 ± 0.1 (≈ 6.03 µM)
7 | C=CCNC(=O)[C@@H]1C(=C)C(=O)O[C@H]1CCCC (racemic) |  | 451 | 2.4 ± 0.2 (≈ 10.1 µM)
8 | C=CCNC(=O)[C@@H]1C(=C)C(=O)O[C@H]1CCCCCCCC (racemic) | Neg |  | 0.81 ± 0.01 (≈ 2.76 µM)

The next lines start with results.

Row | FAS (IC50) (purified human FAS) | SMILES | IC50 (purified human FAS) [µM] | IC50 [1] [µg/mL]
9 | Neg | C=CCNC(=O)[C@H]1[C@H](CCCCCCCC)OC(=O)[C@H]1C (racemic) |  | 59.4 ± 6.4 (≈ 201 µM)
10 | Neg | CCCCCCCCC1OC(=O)[C@@H](C)[C@H]1C(=O)O (stereo partly shown) |  | > 80
11 | Neg | CCCCCCCCC1OC(=O)[C@H](C)[C@H]1C(=O)O (stereo partly shown) |  | > 80
